Measured values published in US20110046131A1, “PURINES AS PKC-THETA INHIBITORS” (N.V. Organon and Pharmacopeia, LLC, priority 2006, published 2011).

Columns and labels:
Format in all cases: biochemical
PKCθ = target: T1, PKCθ (Homo sapiens, UniProt Q04759); assay: Ki Pan Vera (PV) potency for PKCθ; conditions: Ki Pan Vera (PV) of PKCθ
T1 construct: purchased Pan Vera
Description: (§1) For Ki Pan Vera (PV) of PKCθ, entries identified with “A” had values below 100 nM; entries identified with “B” had values below 1 μM; and entries identified with “C” had values below 10 μM.

PKC delta = target: T2, PKC delta (Homo sapiens, UniProt Q05655); assay: Ki Pan Vera (PV) potency for PKC delta; conditions: Ki Pan Vera (PV) of PKC delta
T2 construct: purchased Pan Vera
Description: [The source words this procedure for another target and reports this target under the same test.] as §1

PKC alpha = target: T3, PKC alpha (Homo sapiens, UniProt P17252); assay: Ki Pan Vera (PV) potency for PKC alpha; conditions: Ki Pan Vera (PV) of PKC alpha
T3 construct: purchased Pan Vera
Description: [The source words this procedure for another target and reports this target under the same test.] as §1

SGK kinase = target: T4, SGK kinase (Homo sapiens, UniProt O00141); assay: IC50 for SGK kinase (selectivity); conditions: for IC50: read-out: IC50-SGK1
T4 sequence (O00141 1-431): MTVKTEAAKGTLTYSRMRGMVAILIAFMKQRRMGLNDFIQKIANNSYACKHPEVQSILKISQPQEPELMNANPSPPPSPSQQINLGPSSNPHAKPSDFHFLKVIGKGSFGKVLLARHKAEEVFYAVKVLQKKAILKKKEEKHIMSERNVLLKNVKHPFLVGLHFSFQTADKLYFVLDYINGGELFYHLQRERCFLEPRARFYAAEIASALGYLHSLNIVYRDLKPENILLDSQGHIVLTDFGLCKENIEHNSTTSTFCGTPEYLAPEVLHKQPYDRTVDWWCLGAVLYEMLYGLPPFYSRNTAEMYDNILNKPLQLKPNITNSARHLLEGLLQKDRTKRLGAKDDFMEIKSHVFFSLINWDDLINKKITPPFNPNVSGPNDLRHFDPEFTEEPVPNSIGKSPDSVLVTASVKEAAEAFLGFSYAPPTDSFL
Description: Entries identified with “1” had values above 250 nM; entries identified with “2” had values above 1 μM; entries identified with “3” had values above 10 μM.

T1 sequence (Q04759 whole entry): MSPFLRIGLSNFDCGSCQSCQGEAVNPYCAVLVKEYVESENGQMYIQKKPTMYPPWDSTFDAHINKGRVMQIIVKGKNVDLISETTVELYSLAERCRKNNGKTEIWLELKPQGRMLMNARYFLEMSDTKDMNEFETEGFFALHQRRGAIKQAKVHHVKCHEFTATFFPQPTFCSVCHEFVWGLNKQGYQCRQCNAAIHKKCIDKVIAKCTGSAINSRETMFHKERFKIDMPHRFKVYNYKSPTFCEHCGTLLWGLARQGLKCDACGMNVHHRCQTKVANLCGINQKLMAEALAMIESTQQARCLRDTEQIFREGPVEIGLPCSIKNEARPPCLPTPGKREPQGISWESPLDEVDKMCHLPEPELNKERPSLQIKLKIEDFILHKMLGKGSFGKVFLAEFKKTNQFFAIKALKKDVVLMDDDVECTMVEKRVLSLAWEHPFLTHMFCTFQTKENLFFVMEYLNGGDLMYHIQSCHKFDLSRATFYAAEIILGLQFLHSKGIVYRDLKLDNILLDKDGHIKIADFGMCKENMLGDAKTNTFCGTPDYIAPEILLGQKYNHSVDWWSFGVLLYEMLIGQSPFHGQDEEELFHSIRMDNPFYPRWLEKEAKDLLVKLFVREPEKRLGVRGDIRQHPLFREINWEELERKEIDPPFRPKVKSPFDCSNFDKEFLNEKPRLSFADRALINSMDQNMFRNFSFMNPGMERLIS
T2 sequence (Q05655 whole entry): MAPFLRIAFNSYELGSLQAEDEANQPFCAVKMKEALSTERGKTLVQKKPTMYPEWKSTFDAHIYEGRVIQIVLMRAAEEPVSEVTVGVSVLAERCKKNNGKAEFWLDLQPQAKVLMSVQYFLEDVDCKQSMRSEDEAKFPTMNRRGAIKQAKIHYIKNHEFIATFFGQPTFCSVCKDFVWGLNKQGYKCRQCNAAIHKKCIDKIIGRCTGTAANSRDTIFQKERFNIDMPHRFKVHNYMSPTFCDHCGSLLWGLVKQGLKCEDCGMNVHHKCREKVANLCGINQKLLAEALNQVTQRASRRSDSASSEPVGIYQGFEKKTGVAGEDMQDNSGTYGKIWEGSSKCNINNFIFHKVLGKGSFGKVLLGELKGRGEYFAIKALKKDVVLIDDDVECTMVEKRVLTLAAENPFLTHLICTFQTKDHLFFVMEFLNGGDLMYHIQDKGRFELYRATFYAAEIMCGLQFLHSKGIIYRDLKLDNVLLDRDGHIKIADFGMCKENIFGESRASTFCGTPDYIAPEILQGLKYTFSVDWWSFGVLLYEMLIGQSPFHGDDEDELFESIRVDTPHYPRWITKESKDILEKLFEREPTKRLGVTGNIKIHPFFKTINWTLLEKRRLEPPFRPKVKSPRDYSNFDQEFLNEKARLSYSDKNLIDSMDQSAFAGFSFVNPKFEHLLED

For `Fc1ccc(CNc2ncc3nc(-c4c(Cl)cccc4Cl)n(CCC4CCNCC4)c3n2)c(F)c1` [Compound 148], the Ki (PKCθ) was under 1 µM, the Ki (PKC delta) was over 1 µM and the Ki (PKC alpha) was over 1 µM. It also gave an IC50 (SGK kinase) of over 10 µM.

In the case of `Fc1ccccc1CNc1ncc2nc(-c3c(Cl)cccc3Cl)n(CC3CCNC3)c2n1` (stereo not shown) [Compound 150], the Ki (PKCθ) is reported as under 1 µM, the Ki (PKC delta) is reported as over 1 µM and the Ki (PKC alpha) is reported as over 1 µM. For the same molecule, the IC50-SGK1 (SGK kinase) was “Inactive”.

`Clc1cccc(Cl)c1-c1nc2cnc(NCc3ccccc3)nc2n1CC1CCNC1` (stereo not shown) [Compound 151] gave a Ki (PKCθ) of under 1 µM, a Ki (PKC delta) of over 1 µM and a Ki (PKC alpha) of over 1 µM. For the same molecule, the IC50 (SGK kinase) was over 10 µM.

`Fc1ccccc1CNc1ncc2nc(-c3c(Cl)cccc3Cl)n(C[C@H]3CCNC3)c2n1` [Compound 153] gave a Ki (PKCθ) of under 1 µM, a Ki (PKC delta) of over 1 µM and a Ki (PKC alpha) of over 1 µM. The IC50 (SGK kinase) was over 1 µM.

Work on `Clc1ccc(CNc2cc3c(cn2)nc(-c2c(Cl)cccc2Cl)n3CCC2CCNCC2)cc1Cl` [Compound 154] yielded a Ki (PKCθ) of under 10 µM, a Ki (PKC delta) of over 1 µM and a Ki (PKC alpha) of over 1 µM. The IC50 (SGK kinase) was over 1 µM.

With `Fc1ccc(CNc2cc3c(cn2)nc(-c2c(F)cccc2Cl)n3C[C@@H]2CCNC2)cc1Cl` [Compound 155] the Ki (PKCθ) was under 1 µM, the Ki (PKC delta) was over 1 µM and the Ki (PKC alpha) was over 1 µM. The IC50-SGK1 (SGK kinase) was “Inactive”.

`Fc1ccccc1CNc1ncc2nc(-c3c(F)cccc3Cl)n(C[C@H]3CCCNC3)c2n1` [Compound 156] gave a Ki (PKCθ) of under 1 µM, a Ki (PKC delta) of over 1 µM and a Ki (PKC alpha) of over 10 µM. The IC50 (SGK kinase) was over 1 µM.

`Fc1ccc(CNc2ncc3nc(-c4c(Cl)cccc4Cl)n(CC4CCNC4)c3n2)cc1` (stereo not shown) [Compound 158] showed a Ki (PKCθ) of under 1 µM, a Ki (PKC delta) of over 1 µM and a Ki (PKC alpha) of over 1 µM. For the same molecule, the IC50 (SGK kinase) was over 10 µM.

With `Fc1ccccc1CNc1ncc2nc(-c3c(F)cccc3Cl)n(CC3CCCNC3)c2n1` (stereo not shown) [Compound 160] the Ki (PKCθ) was under 1 µM, the Ki (PKC delta) was over 1 µM and the Ki (PKC alpha) was over 1 µM. The IC50-SGK1 (SGK kinase) was “Inactive”.

Work on `Fc1ccc(F)c(CNc2ncc3nc(-c4c(Cl)cccc4Cl)n(CC4CCNC4)c3n2)c1` (stereo not shown) [Compound 161] yielded a Ki (PKCθ) of under 0.1 µM, a Ki (PKC delta) of over 0.25 µM and a Ki (PKC alpha) of over 0.25 µM. It also gave an IC50 (SGK kinase) of over 10 µM.

Molecule `Fc1ccccc1CNc1ncc2nc(-c3c(F)cccc3Cl)n(C[C@H]3CCCNC3)c2n1` [Compound 162] has a Ki (PKCθ) of under 1 µM, a Ki (PKC delta) of over 10 µM and a Ki (PKC alpha) of over 1 µM. The IC50-SGK1 (SGK kinase) was “Inactive”.

With `Fc1ccc(CNc2ncc3nc(-c4c(Cl)cccc4Cl)n(CCC4CCNCC4)c3n2)cc1` [Compound 163] the Ki (PKCθ) was under 1 µM, the Ki (PKC delta) was over 1 µM and the Ki (PKC alpha) was over 1 µM. For the same molecule, the IC50-SGK1 (SGK kinase) was “Inactive”.

In the case of `Fc1ccccc1CNc1ncc2nc(-c3c(Cl)cccc3Cl)n(CCC3CCCNC3)c2n1` (stereo not shown) [Compound 164], the Ki (PKCθ) is reported as under 1 µM, the Ki (PKC delta) is reported as over 1 µM and the Ki (PKC alpha) is reported as over 1 µM. The IC50-SGK1 (SGK kinase) was “Inactive”.

With `C[C@H](Nc1ncc2nc(-c3c(Cl)cccc3Cl)n(CC3CCNC3)c2n1)c1ccccc1F` (stereo partly shown) [Compound 166] the Ki (PKCθ) was under 1 µM, the Ki (PKC delta) was over 1 µM and the Ki (PKC alpha) was over 1 µM. For the same molecule, the IC50 (SGK kinase) was over 10 µM.

For `Fc1ccc(F)c(CNc2ncc3nc(-c4ccccc4Cl)n(C[C@@H]4CCCNC4)c3n2)c1` [Compound 167], the Ki (PKCθ) was under 1 µM, the Ki (PKC delta) was over 1 µM and the Ki (PKC alpha) was over 10 µM. For the same molecule, the IC50-SGK1 (SGK kinase) was “Inactive”.

`Clc1cccc(Cl)c1-c1nc2cnc(NCc3cccs3)nc2n1C[C@H]1CCNC1` [Compound 170] showed a Ki (PKCθ) of under 1 µM, a Ki (PKC delta) of over 1 µM and a Ki (PKC alpha) of over 1 µM. For the same molecule, the IC50-SGK1 (SGK kinase) was “Inactive”.

With `Fc1ccc(CNc2ncc3nc(-c4ccccc4Cl)n(C[C@@H]4CCCNC4)c3n2)cc1` [Compound 171] the Ki (PKCθ) was under 1 µM, the Ki (PKC delta) was over 1 µM and the Ki (PKC alpha) was over 1 µM. The IC50-SGK1 (SGK kinase) was “Inactive”.

Work on `Fc1ccc(CNc2ncc3nc(-c4c(Cl)cccc4Cl)n(CC4CCNC4)c3n2)c(F)c1` (stereo not shown) [Compound 172] yielded a Ki (PKCθ) of under 1 µM, a Ki (PKC delta) of over 1 µM and a Ki (PKC alpha) of over 1 µM. The IC50-SGK1 (SGK kinase) was “Inactive”.

In the case of `Clc1ccc(CNc2ncc3nc(-c4c(Cl)cccc4Cl)n(CCC4CCNCC4)c3n2)cc1` [Compound 173], the Ki (PKCθ) is reported as under 10 µM, the Ki (PKC delta) is reported as over 1 µM and the Ki (PKC alpha) is reported as over 1 µM. It also gave an IC50 (SGK kinase) of over 10 µM.

Molecule `Fc1ccc(CNc2ncc3nc(-c4c(F)cccc4Cl)n(C[C@H]4CCNC4)c3n2)cc1F` [Compound 174] has a Ki (PKCθ) of under 1 µM, a Ki (PKC delta) of over 1 µM and a Ki (PKC alpha) of over 1 µM. For the same molecule, the IC50-SGK1 (SGK kinase) was “Inactive”.

With `Fc1cccc(Cl)c1-c1nc2cnc(NCc3cc(Cl)cc(Cl)c3)nc2n1C[C@@H]1CCCNC1` [Compound 200] the Ki (PKCθ) was under 10 µM, the Ki (PKC delta) was over 1 µM and the Ki (PKC alpha) was over 10 µM. The IC50-SGK1 (SGK kinase) was “Inactive”.

For `Fc1cccc(CNc2ncc3nc(-c4c(F)cccc4Cl)n(C[C@H]4CCNC4)c3n2)c1` [Compound 205], the Ki (PKCθ) was under 1 µM, the Ki (PKC delta) was over 1 µM and the Ki (PKC alpha) was over 1 µM. For the same molecule, the IC50-SGK1 (SGK kinase) was “Inactive”.
